Data reported in publication PMC4859512, “Polyamino-Isoprenic Derivatives Block Intrinsic Resistance of P. aeruginosa to Doxycycline and Chloramphenicol In Vitro” (PLoS ONE, 2016).
Where “and” joins values, the source holds several entries; their conditions need not be identical. Equal values may be shown once.

Key:
P. aeruginosa strains = experiment: Synergy assays of compound 3 with representative anti-pseudomonal agents (summary in words, all strains); assay type: cell-based, Pseudomonas aeruginosa
Method: We concluded that compound 3 was the best compound and suitable for a more detailed study. The same experiment was performed using chloramphenicol (4 mg/L) in combination with 3 (10 μM final concentration). Amongst the 20 clinical isolates, the growth of 15 (75%) was impaired, while 5 (25%) were resistant (data not shown). These experiments were performed to study the effect of our compounds on the natural resistance of P. aeruginosa. In addition, we were wondering if compound 3 could also increase susceptibility to other antibiotic families including ß-Lactams, fluoroquinolones and aminoglycosides, that are representative of the main classes of anti-pseudomonal agents. Experiments were performed with the ß-lactams ceftazidime and ticarcillin and ciprofloxacin and amikacin. […]. […] To better characterize compound 3, we first searched for the minimum concentration of compound that allowed killing of bacteria by doxycycline, and PAßN was used as the reference molecule.

P. aeruginosa PA01 = experiment: Checkerboard assay with doxycycline; assay type: cell-based, Pseudomonas aeruginosa; conditions: PA01
Method: Serial two-fold dilutions of antimicrobial agents were mixed together in a microtiter plate. The range of concentration of each drug was twice the MIC, down to the eleventh serial two-fold dilutions below this amount. Doxycycline was serially diluted along the X-axis, and the polyamino-isoprenic compound or PAßN was diluted along the Y-axis as indicated. Each well was inoculated with a bacterial inoculum of 5 x 10^5 CFU/ml, and the plates were incubated at 37°C for 18 h under aerobic conditions. Each plate also contained a row and a column in which a serial dilution of polyamino-isoprenic compound or doxycycline, respectively, was present alone to determine the MIC. The FIC index was calculated as follows: FIC index = FIC A + FIC B, where FIC A is the MIC of drug A in the combination/MIC of drug A alone and FIC B is the MIC of drug B in the combination/MIC of drug B alone. The combination was considered synergistic when the FIC index is ≤0.5, and antagonistic when the FIC index is > 4 [26].

[1] = system: P. aeruginosa strains over-expressing efflux pumps (PA01, PT629, PA01-ERY^R, PA0-7H, CMZ091, FB1); experiment: Spotting of logarithmic dilutions on MH agar with antibiotic and compound 3; assay type: cell-based, Pseudomonas aeruginosa
Method: In a second experiment, 5 μL of logarithmic dilutions of an overnight culture of the 6 strains described in Table 1 were spotted on the MH agar plates prepared as above. An additional assay was also performed with these 6 strains using chloramphenicol as antibiotic instead of doxycycline.
Fig 4 Compound 3 activity against P. aeruginosa strains over-expressing efflux pumps. The ability of bacteria to grow under various conditions was assessed in solid media containing, in a: 2 mg/L doxycycline (left) or a combination of 2 mg/L doxycycline and 10 μM compound 3 (right) and in b: 4 mg/L chloramphenicol (left) or a combination of 4 mg/L chloramphenicol and 10 μM compound 3 (right). 5 μL of logarithmic dilutions of an overnight culture of each strain were spotted on the plates. From top to bottom, PA01, PT629, PA01-ERY^R, PA0-7H, CMZ091 and FB1.

[2] = system: P. aeruginosa FB1 (Mex B deleted); experiment: Antibiotic susceptibility testing (broth micro-dilution MIC), strain FB1; assay type: cell-based; conditions: Pseudomonas aeruginosa, read-out: Minimal Inhibitory Concentration
Method: Experiments were performed on the BAC-SCREEN platform of the UMR-MD1, with a Freedom EVO 150 liquid handling system (Tecan, Lyon, France).

[3] = system: P. aeruginosa CMZ091 (Mex XY overproducer); experiment: Antibiotic susceptibility testing (broth micro-dilution MIC), strain CMZ091; assay type: cell-based, Pseudomonas aeruginosa
[4] = doxycycline MIC in the combination 0.0625 µg/ml
[5] = doxycycline MIC in the combination 0.125 µg/ml
[6] = doxycycline MIC in the combination 0.25 µg/ml
[7] = doxycycline MIC in the combination 0.5 µg/ml
[8] = doxycycline MIC in the combination 1 µg/ml
[9] = doxycycline MIC in the combination 2 µg/ml
[10] = doxycycline MIC in the combination 4 µg/ml
[11] = doxycycline MIC in the combination 8 µg/ml
[12] = doxycycline MIC in the combination 16 µg/ml

With `CC(C)=CCCC(C)=CCCC(C)=CCNCCCNCCCCNCCCN` [Compound 3] the synergy with ciprofloxacin (P. aeruginosa strains; all strains with the exception of PA0-7H) was “No synergistic effect”, the “effect of combination with ticarcillin” value (P. aeruginosa strains; all the strains) was “slight effect” and the “effect on the MIC of amikacin” value (P. aeruginosa strains; every strains) was “surprising increase of the MIC”. The “Concentration of compound associated” value (P. aeruginosa PA01; [4]) was 93.75 µM, the FIC index (P. aeruginosa PA01; [4]) was 1 and the “Concentration of compound associated” value (P. aeruginosa PA01; [5]) was 46.88 µM. The Effect (P. aeruginosa PA01; [5]) was “Synergistic (synergistic when the FIC index is ≤0.5)”, the FIC index (P. aeruginosa PA01; [5]) was 0.50 and the “Concentration of compound associated” value (P. aeruginosa PA01; [6]) was 23.44 µM. For the same compound, the Effect (P. aeruginosa PA01; [6]) was “Synergistic (synergistic when the FIC index is ≤0.5)”, the FIC index (P. aeruginosa PA01; [6]) was 0.26 and the “Concentration of compound associated” value (P. aeruginosa PA01; [7]) was 11.72 µM. The Effect (P. aeruginosa PA01; [7]) was “Synergistic (synergistic when the FIC index is ≤0.5)”, the FIC index (P. aeruginosa PA01; [7]) was 0.14 and the “Concentration of compound associated” value (P. aeruginosa PA01; [8]) was 5.86 µM. For the same compound, the Effect (P. aeruginosa PA01; [8]) was “Synergistic (synergistic when the FIC index is ≤0.5)”, the FIC index (P. aeruginosa PA01; [8]) was 0.09 and the “Concentration of compound associated” value (P. aeruginosa PA01; [9]) was 2.93 µM. For the same compound, the Effect (P. aeruginosa PA01; [9]) was “Synergistic (synergistic when the FIC index is ≤0.5)”, the FIC index (P. aeruginosa PA01; [9]) was 0.09 and the “Concentration of compound associated” value (P. aeruginosa PA01; [10]) was 2.93 µM. For the same compound, the Effect (P. aeruginosa PA01; [10]) was “Synergistic (synergistic when the FIC index is ≤0.5)”, the FIC index (P. aeruginosa PA01; [10]) was 0.16 and the “Concentration of compound associated” value (P. aeruginosa PA01; [11]) was 0.73 µM. The Effect (P. aeruginosa PA01; [11]) was “Synergistic (synergistic when the FIC index is ≤0.5)”, the FIC index (P. aeruginosa PA01; [11]) was 0.26 and the “Concentration of compound associated” value (P. aeruginosa PA01; [12]) was 0.18 µM. The Effect (P. aeruginosa PA01; [12]) was “Synergistic (synergistic when the FIC index is ≤0.5)”, the FIC index (P. aeruginosa PA01; [12]) was 0.50 and the “FIC index” value (P. aeruginosa PA01; combination with doxycycline) was 0.09. The “dilution of overnight culture at which growth was observed” value ([1]; 2 μg/mL doxycycline + 10 μM compound 3, PA01 or strains overproducing MexCD or MexEF) was 10^−2, the “dilution above which no growth was observed” value ([1]; 2 μg/mL doxycycline + 10 μM compound 3, all cases) was 10^−5 and the “dilution of overnight culture at which growth was observed” value ([1]; 2 μg/mL doxycycline + 10 μM compound 3, cells overproducing MexAB or MexXY) was 10^−4. For the same compound, the growth on agar ([1]; 2 μg/mL doxycycline + 10 μM compound 3, ΔmexB strain) was “did not grow at any of the dilutions”, the “effect on growth with chloramphenicol” value ([1]; 4 mg/L chloramphenicol + 10 μM compound 3, PT629 and PA0-7H) was “slight effect” and the MIC [2] was 25 µg/mL and 62.5 µM. The “MIC of Amikacin in the presence of the compound” value ([3]; CMZ091, compound 10µM) was greater than 64 µg/mL, the “MIC of Ceftazidime in the presence of the compound” value ([3]; CMZ091, compound 10µM) was 2 µg/mL and the “MIC of Ciprofloxacin in the presence of the compound” value ([3]; CMZ091, compound 10µM) was 0.25 µg/mL. For the same compound, the “MIC of Ticarcillin in the presence of the compound” value ([3]; CMZ091, compound 10µM) was 8 µg/mL and the MIC ([3]; Pseudomonas aeruginosa, read-out: Minimal Inhibitory Concentration) was 25 µg/mL and 62.5 µM.
